In the CheMixHub drug solubility set:

Assay: xn = mol fraction of the nth substance listed, in the solute-free solvent

COc1cc2c(cc1OC)-c1cc3ccc(OC)c(OC)c3c[n+]1CC2.[Cl-] + OCCO + O
solubility (g/100 g solution)
Conditions | 283.15 K | 288.15 K | 293.15 K | 298.15 K | 303.15 K | 308.15 K | 313.15 K | 318.15 K | 323.15 K | 328.15 K
x2 = 0.03125 | 1.2 | 1.46 | 1.83 | 2.28 | 2.8 | 3.39 | 4.08 | 4.86 | 5.75 | 6.75
x2 = 0.06767 | 1.25 | 1.51 | 1.89 | 2.35 | 2.88 | 3.48 | 4.19 | 4.98 | 5.89 | 6.91
x2 = 0.1107 | 1.33 | 1.6 | 1.99 | 2.47 | 3.02 | 3.65 | 4.37 | 5.2 | 6.13 | 7.19
x2 = 0.1622 | 1.41 | 1.69 | 2.09 | 2.58 | 3.15 | 3.8 | 4.55 | 5.4 | 6.36 | 7.45
x2 = 0.225 | 1.47 | 1.78 | 2.23 | 2.74 | 3.31 | 3.98 | 4.71 | 5.6 | 6.54 | 7.6
x2 = 0.3034 | 1.49 | 1.82 | 2.23 | 2.74 | 3.27 | 3.96 | 4.69 | 5.57 | 6.5 | 7.55
x2 = 0.4038 | 1.45 | 1.79 | 2.16 | 2.64 | 3.18 | 3.77 | 4.46 | 5.28 | 6.2 | 7.26
x2 = 0.5373 | 1.36 | 1.65 | 2.01 | 2.43 | 2.92 | 3.5 | 4.22 | 4.93 | 5.81 | 6.75
x2 = 0.7232 | 1.23 | 1.46 | 1.79 | 2.17 | 2.63 | 3.15 | 3.76 | 4.44 | 5.21 | 6.07

Nc1nccnc1Cl + OCCO + O
solubility (g/100 g solution)
Conditions | 278.15 K | 283.15 K | 288.15 K | 293.15 K | 298.15 K | 303.15 K | 308.15 K | 313.15 K | 318.15 K | 323.15 K
x2 = 0.03125 | 0.0244 | 0.0327 | 0.0431 | 0.0542 | 0.0663 | 0.0791 | 0.0925 | 0.108 | 0.123 | 0.139
x2 = 0.06767 | 0.0337 | 0.045 | 0.0589 | 0.0739 | 0.0903 | 0.108 | 0.126 | 0.147 | 0.167 | 0.189
x2 = 0.1107 | 0.0487 | 0.0645 | 0.0838 | 0.105 | 0.128 | 0.153 | 0.178 | 0.208 | 0.236 | 0.267
x2 = 0.1622 | 0.0695 | 0.0914 | 0.118 | 0.147 | 0.179 | 0.213 | 0.25 | 0.29 | 0.33 | 0.372
x2 = 0.225 | 0.09 | 0.119 | 0.153 | 0.192 | 0.235 | 0.28 | 0.328 | 0.382 | 0.435 | 0.491
x2 = 0.3034 | 0.113 | 0.148 | 0.19 | 0.239 | 0.291 | 0.347 | 0.408 | 0.474 | 0.541 | 0.61
x2 = 0.4038 | 0.13 | 0.17 | 0.218 | 0.273 | 0.334 | 0.399 | 0.469 | 0.546 | 0.625 | 0.705
x2 = 0.5373 | 0.139 | 0.182 | 0.232 | 0.292 | 0.357 | 0.427 | 0.505 | 0.589 | 0.676 | 0.764
x2 = 0.7232 | 0.142 | 0.182 | 0.235 | 0.297 | 0.364 | 0.438 | 0.519 | 0.607 | 0.699 | 0.792
